Measurements published in patent US12440479B2, “Prevention or treatment of chronic organ injury” (GEORG-AUGUST-UNIVERSITAET GOETTINGEN, STIFTUNG …, priority 2018, dated 2025).

How the values were obtained:
[1] = test system: ARNT, ALK3, pSmad1/5/8; assay: Kidney allograft biopsies of transplant recipients (immunolabelling, qRT-PCR); type: in vivo, human; conditions: FK506-based immunosuppressive regimen as compared to CsA
Method: The use of parts of human specimens for research purposes as approved by the Ethics Committee of the University Medicine Göttingen, clinical data are presented in Table 6.
Paraffin-embedded specimens were deparaffinized in xylene and rehydrated in ethanol containing distilled water. Tissue sections were stained using polyclonal antibodies against ALK3 (sc-20736, Santa Cruz Biotechnology, Dallas, USA) and ARNT (3718S, Cell Signaling, Danvers, USA), peroxidase labeling was performed using Vectastain Universal Elite ABC Kit (Vector Laboratories, Burlingame, USA) according to the manufacturer's protocol. AEC Substrate-Chromogen (Dako, Glostrup, Denmark) was applied for peroxidase visualization according to the manufacturer's protocol. Nuclear counterstain was performed by using Mayer's Hematoxylin Solution (Sigma, St. Louis, USA). […]
For SYBR-based real-time PCR, cDNA synthesis was performed by using DNase I digestion (Invitrogen, Carlsbad, USA) and SuperScript II Reverse Transcriptase (Invitrogen, Carlsbad, USA) according to the manufacturer's protocol. […] The relative expression levels were calculated using the equation 2^−ddCt.

[2] = test system: ARNT dimers; assay: Native gel analysis of total kidney lysates after Arnt pulldown (UUO mice); type: in vivo; conditions: UUO mice treated with FK506; without interaction with HIF1α, HIF2α or AHR
Excerpt: Tissue and cells were homogenized in NP40 lysis buffer (Life technologies, Carlsbad, USA) supplemented with protease inhibitor cocktail (Roche, Basel, Switzerland). After sonication, protein samples were resolved by a 4-12% Bis-Tris polyacrylamide gel electrophoresis system (Novex, Carlsbad, USA) and transferred onto a nitrocellulose membrane (GE Healthcare, Freiburg, Deutschland), followed by a blocking step with 5% dry milk or 5% bovine serum albumin (BSA) in TBS-T (TBS pH 7.2, 0.1% Tween-20) to prevent unspecific bindings. After incubation with respective primary antibodies against ALK3 (ABD51, Merck Millipore, Billerica, USA) and ALK6 (ABD50, Merck Millipore, Billerica, USA), pSmad1/5/8 (13820, Cell Signaling, Danvers, USA), Arnt (3718, Cell Signaling, Danvers, USA), Fkbp12 (ab2918, Abcam Biochemicals, Cambridge, UK), NFATc1 (sc-7294, Santa Cruz Biotechnology, Dallas, USA), NFATc2 (sc-7295, Santa Cruz Biotechnology, Dallas, USA), β-actin (A5316, Sigma, St. Louis, USA) and Gapdh (5G4, HyTest, Turku, Finland), secondary HRP-conjugated antibodies were used (Dako, Glostrup, Denmark). Luminescence was detected by using chemiluminescent substrate (Cell Signaling, Danvers, USA) on a ChemiDoc XRS system (Bio-Rad, Hercules, USA). Native protein samples were prepared with Native PAGE Sample Prep kit (Novex, Carlsbad, USA) according to the manufacturer's instruction. […]

[3] = FK506 blood concentration measurements (ELISA, whole blood); type: in vivo, mice
Method: FK506 concentration in whole blood samples of mice was measured using colorimetric FK506 Elisa Kit (Abnova, Taipei, […]) according to the manufacturer's protocol. Briefly, 25 μL of whole blood samples and standard solutions containing 0, 2, 10 and 50 ng/mL FK506 were analyzed by OD measurements at 450 nanometer (nm) wavelength.

C=CC[C@@H]1/C=C(\C)C[C@H](C)C[C@H](OC)[C@H]2O[C@@](O)(C(=O)C(=O)N3CCCC[C@H]3C(=O)O[C@H](/C(C)=C/[C@@H]3CC[C@@H](O)[C@H](OC)C3)[C@H](C)[C@@H](O)CC1=O)[C@H](C)C[C@@H]2OC [FK506, tacrolimus]
immunolabelling of ARNT, ALK3 and pSmad1/5/8 [1]: significantly increased
intrarenal ARNT and ALK3 mRNA expression levels [1]: Transcriptional induction
formation of ARNT dimers in total kidney lysates [2]: increased formation of ARNT dimers
FK506 blood concentration ([3]; 0.02 mg/kg orally per day): 245 ± 73 pg/mL
FK506 blood concentration ([3]; 0.075 mg/kg orally per day): 452 ± 71 pg/mL
FK506 blood concentration ([3]; 0.2 mg/kg orally per day): 535 ± 36 pg/mL
